The values that follow are results of earlier work, collected in patent publication US20060100182A1, “Pharmaceutical compositions for the treatment of urinary incontinence” (priority 2002, published 2006).

Structures can show the parent of a compound that is named as a salt.

On to `CCN(CC)CC#CCOC(=O)C(O)(c1ccccc1)C1CCCCC1` (stereo not drawn) [oxybutynin, 4-(diethylamino)-2-butynyl acetate ∝-cyclohexyl ∝-hydroxyphenyl hydrochloride], for which the systemic bioavailability (oral route, hepatic first-pass effect) is ~6%. The maximum plasmatic levels (oral route, recommended doses, 5 mg tablets) is 8 to 18 ng/mL. The elimination half-life (statutory information DITROPAN, Vidal 2001) was 2 h.
